Assay results taken from patent US8702684B2, “Therapeutic hybrid implantable devices” (University of Miami, priority 2007, dated 2014).
Entries after “also recorded” stand apart in the source; their conditions may differ.

Key:
Assay type in all cases: in vivo, rat
[1] = system: syngeneic islet grafts in chemically-diabetic Lewis rats; assay: Effect of systemic immunosuppression given from day of syngeneic islet transplantation on engraftment and graft function in hybrid devices; details: for animals achieving normoglycemia at later times after withdrawal of immunosuppression: fraction of animals in group, single-drug treatment; for graft function while under treatment: syngeneic islets 3,000 IEQ, treatment from day of transplantation for 40 days, controls normoglycemic long-term
Experimental: To assess the impact of conventional systemic immunosuppression on islet engraftment and function in prevascularized hybrid devices, we carried out syngeneic islet transplantation in chemically-diabetic Lewis rats that were treated with either rapamycin or tacrolimus (alone or in combination) as described in Example 3, starting from the day of islet transplantation, for 40 days. Control animals received no treatment.

[2] = system: already-engrafted syngeneic islet grafts in rats; assay: Effect of systemic immunosuppression on already-engrafted functional syngeneic islet grafts; details: for animals returning to normoglycemia / recovering function after drug withdrawal: after 40 days treatment
[3] = system: islet allografts in diabetic Lewis rats; assay: Allogeneic islet graft survival in hybrid devices with local immunosuppression via micro-osmotic pump after weaning of systemic immunosuppression; details: local delivery by micro-osmotic pump 0.25 microL/h, dexamethasone phosphate 20 mg/L, loteprednol etabonate 0.2, 0.5, 10 mg/L, S1P receptor agonist 50 mg/L, controls rejected within 2 weeks of stopping systemic immunosuppression
Source text: Forty days before islet transplantation, the rats were implanted with a hybrid device of the invention with a plunger-containing device in the subcutaneous space as described in Example 3. Allogeneic islets (7,000 IE isolated from Wistar Furth rats) were then deposited into the neovascularized spaces of the hybrid devices, and after the transplantation, the animals' glucose levels were monitored daily as described in Examples 1 and 3. Post-transplantation, all animals received systemic immunosuppression treatment consisting of a single-dose induction treatment with T-cell depleting anti-lymphocyte serum (ALS) given intravenously on day −3. Starting on the day of islet transplantation, systemic maintenance immunosuppression with mycophenolic acid (MPA, 20 mg/kg) was given daily orally for at least three weeks. […] After at least two weeks of treatment, systemic immunosuppression was tapered and discontinued, while the local immunosuppression was maintained. For example, a typical weaning protocol of systemic treatment consisted of 25% reduction of MPA for two consecutive days over an 8-day period. FIG. 25 illustrates an experimental protocol of transient systemic immunosuppression combined with local extended immunotherapy.
Starting on the day of islet transplantation, animals also received local immunosuppression delivered using a micro-osmotic pump such as the Alzet® 100 microL volume, 2-week continuous infusion, 0.25 microL/h delivery rate model 1002 pump (Durect Corp., Cupertino, Calif.). Both the device and the pump were implanted in the dorsal region of the rodents, and they were connected via a PE tubing. Animals were divided into controls receiving either local saline or no treatment and treatment groups receiving various immunosuppressive agents such as, for example, dexamethasone phosphate (20 mg/L), loteprednol etabonate (0.2, 0.5, and 10 mg/L), or a sphingosine-1-phosphate (S1P) receptor agonist (50 mg/L) from the micro-osmotic pump.

animals achieving normoglycemia at later times after withdrawal of immunosuppression [1] | animals returning to normoglycemia / recovering function after drug withdrawal ([2]; already-engrafted graft) | animals displaying dysfunction while under treatment ([2]; fraction of animals, 40 days treatment of already-engrafted graft) | graft function under systemic immunosuppression administered for 40 days ([2]; already-engrafted graft, >=40 days post implantation) | Structure (SMILES) | graft function while under treatment [1] | allograft survival compared to control animals [3] | allograft survival compared to control animals ([3]; listed as dexametasone phosphate)
¼ | returned to normoglycemia | ⅓ | – | CO[C@H]1C[C@@H]2CC[C@@H](C)[C@@](O)(O2)C(=O)C(=O)N2CCCC[C@H]2C(=O)O[C@H]([C@H](C)C[C@@H]2CC[C@@H](O)[C@H](OC)C2)CC(=O)[C@H](C)/C=C(\C)[C@@H](O)[C@@H](OC)C(=O)[C@H](C)C[C@H](C)/C=C/C=C/C=C/1C [rapamycin, sirolimus] | only partial function or primary non-function; also recorded: only partial or primary non-function | – | –
– | – | – | – | CCOC(=O)O[C@]1(C(=O)OCCl)CC[C@H]2[C@@H]3CCC4=CC(=O)C=C[C@]4(C)[C@H]3[C@@H](O)C[C@@]21C [loteprednol etabonate] | – | clear extension of allograft survival; also recorded: sizable extension of allograft survival | –
– | – | – | – | C[C@@H]1C[C@H]2[C@@H]3CCC4=CC(=O)C=C[C@]4(C)[C@@]3(F)[C@@H](O)C[C@]2(C)[C@@]1(O)C(=O)COP(=O)(O)O [dexamethasone phosphate] | – | clear extension of allograft survival | sizable extension of allograft survival
¼ | ⅓ | – | impaired graft function | C=CC[C@@H]1/C=C(\C)C[C@H](C)C[C@H](OC)[C@H]2O[C@@](O)(C(=O)C(=O)N3CCCC[C@H]3C(=O)O[C@H](/C(C)=C/[C@@H]3CC[C@@H](O)[C@H](OC)C3)[C@H](C)[C@@H](O)CC1=O)[C@H](C)C[C@@H]2OC [tacrolimus] | only partial function or primary non-function; also recorded: only partial or primary non-function | – | –
